What was measured:
hemorrhaged rats [1] = experiment: Fixed-pressure hemorrhage model, centhaquin in hypertonic saline; type: in vivo, rat
Procedure: A sham group of rats was cannulated, but not hemorrhaged. A vehicle group received hypertonic saline. Treatment groups received centhaquin (free base) (0.006, 0.017, or 0.05 mg/kg) in hypertonic saline. The values are expressed as mean±S.E.M. with n=6 rats in each group.
FIGS. 9-12 show the effect of centhaquin on blood lactate and base deficit in hemorrhaged rats (FIG. 9); on mean arterial pressure and heart rate (FIG. 10); on cardiac output and stroke volume (FIG. 11); and on systemic vascular resistance and stroke work (FIG. 12). Like the tests of FIG. 8, a sham group of rats was cannulated but not hemorrhaged, a vehicle group received hypertonic saline, and treatment groups received free base centhaquin (0.006, 0.017, or 0.05 mg/kg) in hypertonic saline. The values are expressed as mean±S.E.M. with n=6 rats in each group. *p<0.05 compared to baseline, #p<0.05 compared to hemorrhage, Δp<0.05 compared to vehicle treated group.
FIG. 13 is a plot of fraction survival vs. time for groups of hemorrhaged rats. The sham group of rats was cannulated, but not hemorrhaged. The vehicle group received hypertonic saline, while treatment groups received centhaquin (free base) (0.006, 0.017, or 0.05 mg/kg) in hypertonic saline.
Centhaquin increased the survival time of hemorrhaged rats compared to hypertonic saline treatment. Median survival time for 50% survival rate of rats treated with hypertonic saline was 137±12 minutes, while for rats treated with centhaquin it was 375±25 minutes. Fraction survival at 250 min was 0 when resuscitated with hypertonic saline, while treatment with centhaquin improved the fraction survival to 0.8. Even at 480 min after resuscitation with centhaquin, the fraction survival was 0.2. […] The findings of the present study are novel, unexpected, and are important due to recent reports of large clinical studies showing hypertonic saline has no benefit over normal saline in patients with hypovolemic shock or severe traumatic brain injury (Bulger, May et al. 2010; Bulger, May et al. 2011).

[2] = system: endothelin A (ETA) receptors; experiment: Expression of ETA receptors in blood vessels after intravenous administration; type: in vivo, rat; details: intravenous administration in rats
α2 adrenergic receptors = experiment: Centhaquin resuscitation with and without α2 adrenergic antagonists: arterial blood hematocrit, pH, gases, electrolytes, lactate; type: in vivo, rat; parameters: pCO2 / pO2 / Na+ / K+ / Ca++ / Lactate: unit not given beside the values
[3] = system: release of norepinephrine; details: 0.1, 1.0 and 10.0 μg/ml; Bhatnagar, Pande et al. 1985; cited from earlier work
[4] = system: isolated perfused rabbit heart; details: Bhatnagar, Pande et al. 1985; cited from earlier work
hemorrhaged rats [5] = experiment: Time by which MAP falls back to 35 mmHg in hemorrhaged rats, low volume resuscitation; type: in vivo, rat
Procedure: In another study, the effect of centhaquin resuscitation on the amount of norepinephrine (NE) required to maintain mean arterial pressure (MAP) and the time by which MAP falls back to 35 mmHg in hemorrhaged rats was determined. Male, adult rats were anesthetized with urethane and a pressure catheter SPR-320 was placed in the femoral artery, and a pressure-volume catheter SPR-869 was placed in the left ventricle. Hemorrhage was induced by withdrawing blood and MAP was maintained at 35 mmHg for 30 minutes followed by resuscitation.
Two sets of experiments were performed. First, the amount of NE required to maintain MAP at 70 mmHg in normal saline (NS) or centhaquin (0.05 mg/kg) treated rats (volume equal to blood loss) was determined. Second, the time by which MAP fell back to 35 mmHg in rats treated with 3% hypertonic saline (HS) or centhaquin (0.05 mg/kg) (volume one-fifth of blood loss) was determined. […] In a second set of experiments, hemorrhaged rats were resuscitated with either HS or centhaquin (one-fifth the volume of blood loss).

[6] = 0.05 mg/kg, one-fifth the volume of blood loss

SMILES: Cc1cccc(N2CCN(CCc3ccc4ccccc4n3)CC2)c1 [centhaquin, 2-[2-(4-(3-methyphenyl)-1-piperazinyl)ethyl]-quinoline]
- survival time compared to other groups (hemorrhaged rats [1]; 0.017 mg/kg): maximal survival time
- Fraction survival (hemorrhaged rats [1]; at 250 min): 0.8
- Fraction survival (hemorrhaged rats [1]; at 480 min after resuscitation): 0.2
- Median survival time for 50% survival rate (hemorrhaged rats [1]; centhaquin in hypertonic saline): 375 ± 25 min
- expression of endothelin A (ETA) receptors in the blood vessels [2]: increase the expression
- Ca++ (α2 adrenergic receptors; Baseline): 1.15 ± 0.02
- Hematocrit (α2 adrenergic receptors; Baseline): 54.67 ± 2.03
- K+ (α2 adrenergic receptors; Baseline): 2.73 ± 1.07
- Lactate (α2 adrenergic receptors; Baseline): 3.17 ± 0.24
- Na+ (α2 adrenergic receptors; Baseline): 134.33 ± 0.88
- pCO2 (α2 adrenergic receptors; Baseline): 46.33 ± 1.67
- pH (α2 adrenergic receptors; Baseline): 7.34 ± 0.01
- pO2 (α2 adrenergic receptors; Baseline): 118.33 ± 6.77
- Ca++ (α2 adrenergic receptors; Hemorrhage): 1.22 ± 0.00
- Hematocrit (α2 adrenergic receptors; Hemorrhage): 37.67 ± 2.33
- K+ (α2 adrenergic receptors; Hemorrhage): 5.73 ± 0.30
- Lactate (α2 adrenergic receptors; Hemorrhage): 10.10 ± 0.70
- Na+ (α2 adrenergic receptors; Hemorrhage): 124.33 ± 1.86
- pCO2 (α2 adrenergic receptors; Hemorrhage): 27.33 ± 1.20
- pH (α2 adrenergic receptors; Hemorrhage): 7.24 ± 0.02
- pO2 (α2 adrenergic receptors; Hemorrhage): 124.00 ± 4.73
- Ca++ (α2 adrenergic receptors; Resuscitation 30 min): 1.17 ± 0.02
- Hematocrit (α2 adrenergic receptors; Resuscitation 30 min): 33.00 ± 1.53
- K+ (α2 adrenergic receptors; Resuscitation 30 min): 4.73 ± 0.09
- Lactate (α2 adrenergic receptors; Resuscitation 30 min): 5.80 ± 0.32
- Na+ (α2 adrenergic receptors; Resuscitation 30 min): 130.00 ± 0.08
- pCO2 (α2 adrenergic receptors; Resuscitation 30 min): 33.00 ± 0.58
- pH (α2 adrenergic receptors; Resuscitation 30 min): 7.29 ± 0.01
- pO2 (α2 adrenergic receptors; Resuscitation 30 min): 124.00 ± 4.51
- Ca++ (α2 adrenergic receptors; Resuscitation 60 min): 1.18 ± 0.03
- Hematocrit (α2 adrenergic receptors; Resuscitation 60 min): 32.67 ± 1.76
- K+ (α2 adrenergic receptors; Resuscitation 60 min): 4.60 ± 0.00
- Lactate (α2 adrenergic receptors; Resuscitation 60 min): 4.53 ± 0.38
- Na+ (α2 adrenergic receptors; Resuscitation 60 min): 128.00 ± 1.00
- pCO2 (α2 adrenergic receptors; Resuscitation 60 min): 33.33 ± 0.33
- pH (α2 adrenergic receptors; Resuscitation 60 min): 7.31 ± 0.01
- pO2 (α2 adrenergic receptors; Resuscitation 60 min): 121.67 ± 4.63
- Ca++ (α2 adrenergic receptors; Resuscitation 120 min): 1.18 ± 0.01
- Hematocrit (α2 adrenergic receptors; Resuscitation 120 min): 33.67 ± 2.03
- K+ (α2 adrenergic receptors; Resuscitation 120 min): 5.17 ± 0.15
- Lactate (α2 adrenergic receptors; Resuscitation 120 min): 5.67 ± 0.22
- Na+ (α2 adrenergic receptors; Resuscitation 120 min): 130.33 ± 0.33
- pCO2 (α2 adrenergic receptors; Resuscitation 120 min): 29.00 ± 1.15
- pH (α2 adrenergic receptors; Resuscitation 120 min): 7.28 ± 0.01
- pO2 (α2 adrenergic receptors; Resuscitation 120 min): 132.00 ± 6.69
- norepinephrine release evoked by potassium chloride and dimethyl phenyl piperazinium chloride [3]: inhibited
- spontaneous release of norepinephrine [3]: initial increase, followed by a decrease
- inotropic effect, ventricular contractions [4]: positive inotropic effect
- blood lactate lower compared to hypertonic saline (hemorrhaged rats [5]; [6]): 44%
- time by which MAP fell back to 35 mmHg (hemorrhaged rats [5]; [6]): 148 ± 15 min
- survival after blood transfusion (hemorrhaged rats [5]; blood transfusion one-fifth the volume of blood loss after MAP fell to 35 mmHg): 788 min
